Assay results reported in US8008303B2, “Biphenyl derivatives and their use in treating hepatitis C” (AstraZeneca AB, priority 2005, dated 2011).
Read-outs that look alike come from different tables or passages of the source.

Columns and labels:
[1] = tested on: HCV replicon cells Huh 9B; assay: HCV replicon assay (luciferase readout); format: cell-based
How it was run: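 Compounds, made up at twice final strength (final DMSO 1%), were added to subgenomic replicon cells one day after plating. Incubation then ran 72 h at 37 °C, 5% CO2, without G418. Replication was quantified as firefly luciferase luminescence in lysed cells, with cytotoxicity assessed on a duplicate clear plate.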

[2] = tested on: HCV replicon cells Huh 9B; format: cell-based
[3] = Hepatitis C virus, 72 h, concentration reducing replicon level (luciferase activity) by 50% vs untreated cell control, 72 h incubation
[4] = concentration reducing total cell area by 50% relative to DMSO controls, methylene blue, absorbance 620 nm, 72 h incubation

SMILES | IC50 [1, 3] [nM] | TD50 [2, 4] | IC50 ([1]; Hepatitis C virus, concentration reducing replicon level (luciferase activity) by 50% vs untreated cell control, 72 h incubation) [nM] | IC50 [1] [nM] | TD50 [2]
O=C(Nc1ccc(CN2CCS(=O)(=O)CC2)cc1)c1ccc(-c2cc(NC(=O)C3CC3)ccc2OC(F)(F)F)cc1 [Example 185, 5′-(Cyclopropanecarbonyl-amino)-2′-trifluoromethoxy-biphenyl-4-carboxylic acid [4-(1,1-dioxo-1lambda*6*-thiomorpholin-4-ylmethyl)-phenyl]-amide] | < 1000 | * (* < 50 μM) |  |  | 
COc1ccc(NC(=O)C2CC2)cc1-c1ccc(C(=O)Nc2ccc(CN3CCS(=O)(=O)CC3)cc2)cc1 [Example 186, 5′-(Cyclopropanecarbonyl-amino)-2′-methoxy-biphenyl-4-carboxylic acid [4-(1,1-dioxo-1lambda*6*-thiomorpholin-4-ylmethyl)-phenyl]-amide] | < 1000 | * (* < 50 μM) |  |  | 
COc1ccc(NC(=O)C2CCCCC2)cc1-c1ccc(C(=O)Nc2ccc(CN3CCS(=O)(=O)CC3)cc2)cc1 [Example 187, 5′-(Cyclohexanecarbonyl-amino)-2′-methoxy-biphenyl-4-carboxylic acid [4-(1,1-dioxo-1lambda*6*-thiomorpholin-4-ylmethyl)-phenyl]-amide] | < 1000 | * (* < 50 μM) |  |  | 
CCNC(=O)Nc1ccc(C)c(-c2ccc(C(=O)Nc3ccc(CN4CCS(=O)(=O)CC4)cc3)cc2)c1 [Example 188, 5′-(3-Ethyl-ureido)-2′-methyl-biphenyl-4-carboxylic acid [4-(1,1-dioxo-1lambda*6*-thiomorpholin-4-ylmethyl)-phenyl]-amide] | < 1000 | * (* < 50 μM) |  |  | 
Cc1ccc(NC(=O)NC2CCCCC2)cc1-c1ccc(C(=O)Nc2ccc(CN3CCS(=O)(=O)CC3)cc2)cc1 [Example 189, 5′-(3-Cyclohexyl-ureido)-2′-methyl-biphenyl-4-carboxylic acid [4-(1,1-dioxo-1lambda*6*-thiomorpholin-4-ylmethyl)-phenyl]-amide] | < 1000 | * (* < 50 μM) |  |  | 
CC(=O)C(=O)Nc1ccc(C)c(-c2ccc(C(=O)Nc3ccc(CN4CCS(=O)(=O)CC4)cc3)cc2)c1 [Example 190, 2′-Methyl-5′-(2-oxo-propionylamino)-biphenyl-4-carboxylic acid [4-(1,1-dioxo-1lambda*6*-thiomorpholin-4-ylmethyl)-phenyl]-amide] | < 1000 | * (* < 50 μM) |  |  | 
O=C(Nc1ccc(CN2CCS(=O)(=O)CC2)cc1)c1ccc(-c2cc(NC(=O)C3CCCCC3)ccc2F)cc1 [Example 191, 5′-(Cyclohexanecarbonyl-amino)-2′-fluoro-biphenyl-4-carboxylic acid [4-(1,1-dioxo-1lambda*6*-thiomorpholin-4-ylmethyl)-phenyl]-amide] | > 5000 | * (* < 50 μM) |  |  | 
O=C(Nc1ccc(CN2CCS(=O)(=O)CC2)cc1)c1ccc(-c2cc(NC(=O)C3CCCCC3)ccc2OC(F)(F)F)cc1 [Example 192, 5′-(Cyclohexanecarbonyl-amino)-2′-trifluoromethoxy-biphenyl-4-carboxylic acid [4-(1,1-dioxo-1lambda*6*-thiomorpholin-4-ylmethyl)-phenyl]-amide] | < 1000 | * (* < 50 μM) |  |  | 
O=C(Nc1ccc(CN2CCS(=O)(=O)CC2)cc1)c1ccc(-c2cc(NC(=O)C3CCCCC3)ccc2Cl)cc1 [Example 193, 5′-(Cyclohexanecarbonyl-amino)-2′-chloro-biphenyl-4-carboxylic acid [4-(1,1-dioxo-1lambda*6*-thiomorpholin-4-ylmethyl)-phenyl]-amide] | < 1000 | * (* < 50 μM) |  |  | 
O=C(Nc1ccc(CN2CCS(=O)(=O)CC2)cc1)c1ccc(-c2cc(NC(=O)C3CC3)ccc2Cl)cc1 [Example 194, 2′-Chloro-5′-(cyclopropanecarbonyl-amino)-biphenyl-4-carboxylic acid [4-(1,1-dioxo-1lambda*6*-thiomorpholin-4-ylmethyl)-phenyl]-amide] | < 1000 | * (* < 50 μM) |  |  | 
Cc1ccc(NC(=O)C2CCC2)cc1-c1ccc(C(=O)Nc2ccc(CN3CCS(=O)(=O)CC3)cc2)cc1 [Example 195, 5′-(Cyclobutanecarbonyl-amino)-2′-methyl-biphenyl-4-carboxylic acid [4-(1,1-dioxo-1lambda*6*-thiomorpholin-4-ylmethyl)-phenyl]-amide] | < 1000 | * (* < 50 μM) |  |  | 
O=C(Nc1ccc(CN2CCS(=O)(=O)CC2)cc1)c1ccc(-c2cccc(NC(=O)C3CCCCC3)c2)cc1 [Example 196, 3′-(Cyclohexanecarbonyl-amino)-biphenyl-4-carboxylic acid [4-(1,1-dioxo-1lambda*6*-thiomorpholin-4-ylmethyl)-phenyl]-amide] | 1000 to 5000 | * (* < 50 μM) |  |  | 
Cc1ccc(CNc2ccc3cn[nH]c3c2)cc1-c1ccc(C(=O)Nc2ccc(CN3CCS(=O)(=O)CC3)cc2)cc1 [Example 197, 5′-[(1H-Indazol-6-ylamino)-methyl]-2′-methyl-biphenyl-4-carboxylic acid [4-(1,1-dioxo-1lambda*6*-thiomorpholin-4-ylmethyl)-phenyl]-amide] | < 1000 | ** (** > 50 μM) |  |  | 
Cc1ccc(CNc2cccc(Br)c2)cc1-c1ccc(C(=O)Nc2ccc(CN3CCS(=O)(=O)CC3)cc2)cc1 [Example 198, 5′-[(3-Bromo-phenylamino)-methyl]-2′-methyl-biphenyl-4-carboxylic acid [4-(1,1-dioxo-1lambda*6*-thiomorpholin-4-ylmethyl)-phenyl]-amide] | 1000 to 5000 | * (* < 50 μM) |  |  | 
Cc1ccc(CNCc2cccc(Cl)c2)cc1-c1ccc(C(=O)Nc2ccc(CN3CCS(=O)(=O)CC3)cc2)cc1 [Example 199, 5′-[(3-Chloro-benzylamino)-methyl]-2′-methyl-biphenyl-4-carboxylic acid [4-(1,1-dioxo-1lambda*6*-thiomorpholin-4-ylmethyl)-phenyl]-amide] |  | * (* < 50 μM) | 1000 to 5000 |  | 
Cc1ccc(CNC(CO)Cc2cnc[nH]2)cc1-c1ccc(C(=O)Nc2ccc(CN3CCS(=O)(=O)CC3)cc2)cc1 (centres unmarked) [Example 200, 5′-{[1-Hydroxymethyl-2-(3H-imidazol-4-yl)-ethylamino]-methyl}-2′-methyl-biphenyl-4-carboxylic acid [4-(1,1-dioxo-1lambda*6*-thiomorpholin-4-ylmethyl)-phenyl]-amide] | > 5000 | ** (** > 50 μM) |  |  | 
Cc1ccc(NS(=O)(=O)c2ccc(Cl)cc2)cc1-c1ccc(C(=O)Nc2ccc(CN3CCS(=O)(=O)CC3)cc2)cc1 [Example 202, 5′-(4-Chloro-benzenesulfonylamino)-2′-methyl-biphenyl-4-carboxylic acid [4-(1,1-dioxo-1lambda*6*-thiomorpholin-4-ylmethyl)-phenyl]-amide] | 1000 to 5000 | ** (** > 50 μM) |  |  | 
Cc1ccc(NS(=O)(=O)c2ccc(N3CCOCC3)nc2)cc1-c1ccc(C(=O)Nc2ccc(CN3CCS(=O)(=O)CC3)cc2)cc1 [Example 203, 2′-Methyl-5′-(6-morpholin-4-yl-pyridine-3-sulfonylamino)-biphenyl-4-carboxylic acid [4-(1,1-dioxo-1lambda*6*-thiomorpholin-4-ylmethyl)-phenyl]-amide] | 1000 to 5000 | * (* < 50 μM) |  |  | 
Cc1ccc(NS(=O)(=O)c2ccc(Cl)s2)cc1-c1ccc(C(=O)Nc2ccc(CN3CCS(=O)(=O)CC3)cc2)cc1 [Example 204, 5′-(5-Chloro-thiophene-2-sulfonylamino)-2′-methyl-biphenyl-4-carboxylic acid [4-(1,1-dioxo-1lambda*6*-thiomorpholin-4-ylmethyl)-phenyl]-amide] | 1000 to 5000 | * (* < 50 μM) |  |  | 
Cc1ccc(-c2noc(C3CC3)n2)cc1-c1ccc(C(=O)Nc2ccc(CN3CCS(=O)(=O)CC3)cc2)cc1 [Example 205, 5′-(5-Cyclopropyl-[1,2,4]oxadiazol-3-yl)-2′-methyl-biphenyl-4-carboxylic acid [4-(1,1-dioxo-1lambda*6*-thiomorpholin-4-ylmethyl)-phenyl]-amide] | > 5000 | * (* < 50 μM) |  |  | 
Cc1ccc(-c2noc(C3CCCCC3)n2)cc1-c1ccc(C(=O)Nc2ccc(CN3CCS(=O)(=O)CC3)cc2)cc1 [Example 206, 5′-(5-Cyclohexyl-[1,2,4]oxadiazol-3-yl)-2′-methyl-biphenyl-4-carboxylic acid [4-(1,1-dioxo-1lambda*6*-thiomorpholin-4-ylmethyl)-phenyl]-amide] | > 5000 | * (* < 50 μM) |  |  | 
Cc1ccc(-c2noc(C(C)C)n2)cc1-c1ccc(C(=O)Nc2ccc(CN3CCS(=O)(=O)CC3)cc2)cc1 [Example 207, 5′-(5-Isopropyl-[1,2,4]oxadiazol-3-yl)-2′-methyl-biphenyl-4-carboxylic acid [4-(1,1-dioxo-1lambda*6*-thiomorpholin-4-ylmethyl)-phenyl]-amide] | > 5000 | * (* < 50 μM) |  |  | 
CCN(CC)CCNC(=O)c1ccc(NC(=O)c2ccc(-c3cc(C(=O)NC4CC4)ccc3C)cc2)cc1 [Example 208, 6-Methyl-biphenyl-3,4′-dicarboxylic acid 3-cyclopropylamide 4′-{[4-(2-diethylamino-ethylcarbamoyl)-phenyl]-amide}] |  |  |  | > 5000 | * (key: * < 50 μM; ** > 50 μM)
Cc1ccc(NC(=O)c2ccco2)cc1-c1ccc(C(=O)NCc2cccc(Cl)c2)cc1 [Example 209, Furan-2-carboxylic acid [4′-(3-chloro-benzylcarbamoyl)-6-methyl-biphenyl-3-yl]-amide] | 1000 to 5000 | ** (** > 50 μM) |  |  | 
CCOC(=O)c1ccc(-c2cc(NC(=O)OC(C)(C)C)ccc2C)cc1 [Example 210, 5′-tert-Butoxycarbonylamino-2′-methyl-biphenyl-4-carboxylic acid ethyl ester] | 1000 to 5000 | * (* < 50 μM) |  |  | 
